In PubChem BioAssay (NCI):
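Tested at 5 concentrations; 48 h exposure; 96-well plates; endpoints linearly interpolated, else capped at highest concentration. Here, GI50 denotes the concentration required for 50% inhibition of growth. TGI is the concentration that stops growth completely.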

Key:
Assay in all cases: inhibition of tumour cell growth, NCI panel, 48 h
SK-MEL-2 melanoma = test system: SK-MEL-2 melanoma
LOX IMVI melanoma = test system: LOX IMVI melanoma
CAKI-1 renal = test system: CAKI-1 renal
NCI/ADR-RES ovarian = test system: NCI/ADR-RES ovarian
SW-620 colon = test system: SW-620 colon
MCF7 breast = test system: MCF7 breast
SK-OV-3 ovarian = test system: SK-OV-3 ovarian
SF-295 CNS = test system: SF-295 CNS
T-47D breast = test system: T-47D breast
RXF 393 renal = test system: RXF 393 renal
HL-60(TB) leukemia = test system: HL-60(TB) leukemia
DU-145 prostate = test system: DU-145 prostate
MALME-3M melanoma = test system: MALME-3M melanoma
MOLT-4 leukemia = test system: MOLT-4 leukemia
HCC-2998 colon = test system: HCC-2998 colon
SF-539 CNS = test system: SF-539 CNS
HS 578T breast = test system: HS 578T breast
M14 melanoma = test system: M14 melanoma
MDA-MB-435 = test system: MDA-MB-435
SNB-75 CNS = test system: SNB-75 CNS
PC-3 prostate = test system: PC-3 prostate
RPMI-8226 leukemia = test system: RPMI-8226 leukemia
786-0 renal = test system: 786-0 renal
ACHN renal = test system: ACHN renal
KM12 colon = test system: KM12 colon
OVCAR-8 ovarian = test system: OVCAR-8 ovarian
SK-MEL-28 melanoma = test system: SK-MEL-28 melanoma
HOP-62 NSCLC = test system: HOP-62 NSCLC
EKVX NSCLC = test system: EKVX NSCLC
U251 CNS = test system: U251 CNS
A549 NSCLC = test system: A549 NSCLC
MDA-MB-468 breast = test system: MDA-MB-468 breast
SR leukemia = test system: SR leukemia
MDA-MB-231 breast = test system: MDA-MB-231 breast
OVCAR-3 ovarian = test system: OVCAR-3 ovarian
COLO 205 colon = test system: COLO 205 colon
HCT-15 colon = test system: HCT-15 colon
CCRF-CEM leukemia = test system: CCRF-CEM leukemia
NCI-H226 lung = test system: NCI-H226 lung
UACC-257 melanoma = test system: UACC-257 melanoma
OVCAR-5 ovarian = test system: OVCAR-5 ovarian
NCI-H23 lung = test system: NCI-H23 lung
HT29 colon = test system: HT29 colon
OVCAR-4 ovarian = test system: OVCAR-4 ovarian
SF-268 CNS = test system: SF-268 CNS
A498 renal = test system: A498 renal
K-562 leukemia = test system: K-562 leukemia
BT-549 breast = test system: BT-549 breast
UACC-62 melanoma = test system: UACC-62 melanoma
TK-10 renal = test system: TK-10 renal
HOP-92 NSCLC = test system: HOP-92 NSCLC
IGROV1 ovarian = test system: IGROV1 ovarian
NCI-H460 lung = test system: NCI-H460 lung
NCI-H522 lung = test system: NCI-H522 lung
SK-MEL-5 melanoma = test system: SK-MEL-5 melanoma
SNB-19 CNS = test system: SNB-19 CNS
UO-31 renal = test system: UO-31 renal
SN12C renal = test system: SN12C renal

CCNCCCn1c2c(c3cc(OC)c(OC)cc3c1=O)C(=O)c1cc3c(nc1-2)OCO3
GI50 (SK-MEL-2 melanoma): > 100 µM | TGI (SK-MEL-2 melanoma): > 100 µM | GI50 (LOX IMVI melanoma): 0.487 µM | TGI (LOX IMVI melanoma): 1.9 µM | GI50 (CAKI-1 renal): 0.946 µM | TGI (CAKI-1 renal): 16.6 µM | GI50 (NCI/ADR-RES ovarian): 1.56 µM | TGI (NCI/ADR-RES ovarian): 4.14 µM | GI50 (SW-620 colon): 0.631 µM | TGI (SW-620 colon): 20.1 µM | GI50 (MCF7 breast): 0.0754 µM | TGI (MCF7 breast): 10.3 µM | GI50 (SK-OV-3 ovarian): 1.14 µM | TGI (SK-OV-3 ovarian): 11.8 µM | GI50 (SF-295 CNS): 0.23 µM | TGI (SF-295 CNS): 12.7 µM | GI50 (T-47D breast): 1.06 µM | TGI (T-47D breast): 13.9 µM | GI50 (RXF 393 renal): 1.35 µM | TGI (RXF 393 renal): 5.66 µM | GI50 (HL-60(TB) leukemia): 1.63 µM | TGI (HL-60(TB) leukemia): 7.5 µM | GI50 (DU-145 prostate): 0.548 µM | TGI (DU-145 prostate): 12.5 µM | GI50 (MALME-3M melanoma): 1.35 µM | TGI (MALME-3M melanoma): 2.76 µM | GI50 (MOLT-4 leukemia): 0.048 µM | TGI (MOLT-4 leukemia): 2.13 µM | GI50 (HCC-2998 colon): 4.07 µM | TGI (HCC-2998 colon): 18.9 µM | GI50 (SF-539 CNS): 0.675 µM | TGI (SF-539 CNS): 4.1 µM | GI50 (HS 578T breast): 10.4 µM | TGI (HS 578T breast): 29.8 µM | GI50 (M14 melanoma): 1.97 µM | TGI (M14 melanoma): 12.3 µM | GI50 (MDA-MB-435): 1.38 µM | TGI (MDA-MB-435): 2.89 µM | GI50 (SNB-75 CNS): 0.495 µM | TGI (SNB-75 CNS): 9.41 µM | GI50 (PC-3 prostate): 1.28 µM | TGI (PC-3 prostate): 18.9 µM | GI50 (RPMI-8226 leukemia): 0.641 µM | TGI (RPMI-8226 leukemia): 2.97 µM | GI50 (786-0 renal): 1.39 µM | TGI (786-0 renal): 2.84 µM | GI50 (ACHN renal): 0.755 µM | TGI (ACHN renal): 7.05 µM | GI50 (KM12 colon): 10.4 µM | TGI (KM12 colon): 23.8 µM | GI50 (OVCAR-8 ovarian): 1.82 µM | TGI (OVCAR-8 ovarian): 12 µM | GI50 (SK-MEL-28 melanoma): 2.56 µM | TGI (SK-MEL-28 melanoma): 8.53 µM | GI50 (HOP-62 NSCLC): 0.205 µM | TGI (HOP-62 NSCLC): 10.2 µM | GI50 (EKVX NSCLC): 5.26 µM | TGI (EKVX NSCLC): 20 µM | GI50 (U251 CNS): 0.348 µM | TGI (U251 CNS): 14.7 µM | GI50 (A549 NSCLC): 1.22 µM | TGI (A549 NSCLC): 18.4 µM | GI50 (MDA-MB-468 breast): 0.431 µM | TGI (MDA-MB-468 breast): 2.51 µM | GI50 (SR leukemia): 0.307 µM | TGI (SR leukemia): 2.39 µM | GI50 (MDA-MB-231 breast): 1.91 µM | TGI (MDA-MB-231 breast): 6.14 µM | GI50 (OVCAR-3 ovarian): 11.9 µM | TGI (OVCAR-3 ovarian): 24.7 µM | GI50 (COLO 205 colon): 3.07 µM | TGI (COLO 205 colon): 19.6 µM | GI50 (HCT-15 colon): 1.14 µM | TGI (HCT-15 colon): 2.54 µM | GI50 (CCRF-CEM leukemia): 0.0351 µM | TGI (CCRF-CEM leukemia): 1.23 µM | GI50 (NCI-H226 lung): 1.27 µM | TGI (NCI-H226 lung): 3.2 µM | GI50 (UACC-257 melanoma): 13.4 µM | TGI (UACC-257 melanoma): 27.7 µM | GI50 (OVCAR-5 ovarian): 3.69 µM | TGI (OVCAR-5 ovarian): 16.5 µM | GI50 (NCI-H23 lung): 0.324 µM | TGI (NCI-H23 lung): 3.76 µM | GI50 (HT29 colon): 0.706 µM | TGI (HT29 colon): 16.1 µM | GI50 (OVCAR-4 ovarian): 14.2 µM | TGI (OVCAR-4 ovarian): 31.9 µM | GI50 (SF-268 CNS): 0.85 µM | TGI (SF-268 CNS): 16.8 µM | GI50 (A498 renal): 9.07 µM | TGI (A498 renal): 23 µM | GI50 (K-562 leukemia): 0.483 µM | TGI (K-562 leukemia): 2.75 µM | GI50 (BT-549 breast): 6.82 µM | TGI (BT-549 breast): 25.1 µM | GI50 (UACC-62 melanoma): 1.81 µM | TGI (UACC-62 melanoma): 15.4 µM | GI50 (TK-10 renal): 17.6 µM | TGI (TK-10 renal): 33.3 µM | GI50 (HOP-92 NSCLC): 7.73 µM | TGI (HOP-92 NSCLC): 23.1 µM | GI50 (IGROV1 ovarian): 12.1 µM | TGI (IGROV1 ovarian): 25.7 µM | GI50 (NCI-H460 lung): 0.239 µM | TGI (NCI-H460 lung): 1.39 µM | GI50 (NCI-H522 lung): 0.442 µM | TGI (NCI-H522 lung): 23 µM | GI50 (SK-MEL-5 melanoma): 0.921 µM | TGI (SK-MEL-5 melanoma): 2.14 µM | GI50 (SNB-19 CNS): 1.69 µM | TGI (SNB-19 CNS): 17.5 µM | GI50 (UO-31 renal): 3.09 µM | TGI (UO-31 renal): 16.3 µM | GI50 (SN12C renal): 4.61 µM | TGI (SN12C renal): 17.4 µM
